Laboratory results taken from ChEMBL document CHEMBL1134231, “Peptidomimetic inhibitors of protein farnesyltransferase show potent antimalarial activity” (Bioorg Med Chem Lett, 2001).
Converted amounts (≈) assume the structure as drawn.

Experiments:
[1] = target: Protein farnesyltransferase (Homo sapiens, UniProt P49354+P49356); assay: Inhibition of mammalian Farnesyltransferase; type: protein-complex assay
[2] = target: Protein farnesyltransferase (Mus musculus, UniProt Q61239+Q8K2I1); assay: Inhibition of mammalian H-Ras processing in NIH 3T3 cells; type: functional, cell-based, NIH3T3
[3] = test system: Plasmodium falciparum; assay: Growth inhibition of Plasmodium falciparum 3D7 infected red blood cells; type: functional; settings: read-out: ED50 (the source's name)
[4] = test system: Plasmodium falciparum; assay: Percent growth inhibition of Plasmodium falciparum 3D7 in erythrocytes at 20 uM; type: functional
[5] = test system: Plasmodium falciparum; assay: Inhibition of Plasmodium falciparum 3D7 infected red blood cells; type: functional; settings: read-out: ED50 (the source's name)

Row | Compound | IC50 [1] | IC50 [2] | EC50 [5] | EC50 [3] | inhibition at 20 µM [4]
1 | CSCC[C@H](NC(=O)c1ccc(NCc2cncn2Cc2ccc(-c3ccccc3)cc2)cc1-c1ccccc1)C(=O)O | 260 nM | > 100000 nM |  | 5 µg/mL (≈ 8.46 µM) | 89.1%
2 | N#Cc1ccc(Cn2cncc2CNc2ccc(C(=O)NCC3CCCCC3)c(-c3ccccc3)c2)cc1 | 3100 nM | > 100000 nM |  | 3 µg/mL (≈ 5.96 µM) | 
3 | COC(=O)[C@H](CCSC)NC(=O)c1ccc(CNCc2c[nH]cn2)cc1-c1ccccc1C | 34000 nM | 20 nM |  | 2 µg/mL (≈ 4.29 µM) | 99%
4 | CSCC[C@H](NC(=O)c1ccc(NC[C@@H](N)CS)cc1-c1ccccc1)C(=O)O |  |  | > 30 µg/mL |  | 
5 | CSCC[C@H](NC(=O)c1ccc(CNCc2c[nH]cn2)cc1-c1ccccc1C)C(=O)O | 1 nM | 200 nM |  | > 30 µg/mL | 0%
6 | CSCC[C@H](NC(=O)c1ccc(NCc2cncn2Cc2ccc(C#N)cc2)cc1-c1ccccc1)C(=O)O | 7.2 nM | 5000 nM |  | 13 µg/mL (≈ 24.1 µM) | 86.3%
7 | CSCC[C@H](NC(=O)c1ccc(NCc2cn(Cc3ccc(-c4ccccc4)cc3)cn2)cc1-c1ccccc1)C(=O)O | 6000 nM | > 100000 nM |  | 12 µg/mL (≈ 20.3 µM) | 

Continued by falling IC50 [1], values first:

Row | IC50 [1] | IC50 [2] | EC50 [5] | Compound | EC50 [3] | inhibition at 20 µM [4]
8 | 3000 nM | > 100000 nM |  | CSCC[C@H](NC(=O)c1ccc(NCc2cn(Cc3cccc4ccccc34)cn2)cc1-c1ccccc1)C(=O)O | 10 µg/mL (≈ 17.7 µM) | 19.4%
9 | 780 nM |  |  | CSCC[C@H](NC(=O)c1ccc(NCc2cn(CC3CCCCC3)cn2)cc1-c1ccccc1)C(=O)O | > 30 µg/mL | 
10 | 640 nM |  |  | N#Cc1ccc(Cn2cncc2CNc2ccc(C(=O)NCc3ccccc3)c(-c3ccccc3)c2)cc1 | 4 µg/mL (≈ 8.04 µM) | 
11 | 380 nM | > 100000 nM |  | CC(C)NC(=O)c1ccc(NCc2cncn2Cc2ccc(C#N)cc2)cc1-c1ccccc1 | 3 µg/mL (≈ 6.67 µM) | 
12 | 220 nM |  |  | N#CCCNC(=O)c1ccc(NCc2cncn2Cc2ccc(C#N)cc2)cc1-c1ccccc1 | 10 µg/mL (≈ 21.7 µM) | 
13 | 41 nM |  |  | CSCC[C@H](NC(=O)c1ccc(NCc2cncn2CC2CCCCC2)cc1-c1ccccc1)C(=O)O | 10 µg/mL (≈ 19.2 µM) | 72%
